Reference: US4160845A, “Fungicidal N-(haloaliphaticthio)halovinylsulfonamides” (Chevron Research Company, priority 1976, dated 1979)

Columns and labels:
Format in all cases: cell-based
Conditions in all cases: paper strips on potato dextrose agar, 25° C., 24 hours
Rhizoctonia solani = assay: Mycelial inhibition test, Rhizoctonia solani
Aspergillus niger = assay: Mycelial inhibition test, Aspergillus niger
Fusarium moniloforma = assay: Mycelial inhibition test, Fusarium moniloforma

| SMILES | Mycelia Inhibition, micrograms/cm for 99% control, R (Rhizoctonia solani) [micrograms/cm] | Mycelia Inhibition, micrograms/cm for 99% control, A (Aspergillus niger) [micrograms/cm] | Mycelia Inhibition, micrograms/cm for 99% control, F (Fusarium moniloforma) [micrograms/cm] |
| --- | --- | --- | --- |
| Cc1ccc(N(SC(Cl)(Cl)Cl)S(=O)(=O)C(Cl)=C(Cl)Cl)cc1 [Compound 11] | > 1.7 | > 1.7 | > 1.7 |
| CNS(=O)(=O)C(Cl)=C(Cl)Cl [Compound 13] | > 1.7 | > 1.7 | > 1.7 |
| Cc1cccc(C)c1NS(=O)(=O)C(Cl)=C(Cl)Cl [Compound 17] | > 1.7 | > 1.7 | > 1.7 |
| O=S(=O)(Nc1ccc(Cl)cc1)C(Cl)=C(Cl)Cl [Compound 19, N-(p-chlorophenyl)trichlorovinylsulfonamide] | > 1.7 | > 1.7 | > 1.7 |
| O=S(=O)(NC1CCCCC1)C(Cl)=C(Cl)Cl [Compound 15] | > 1.7 | > 1.7 | > 1.7 |
| O=S(=O)(C(Cl)=C(Cl)Cl)N(SC(Cl)(Cl)Cl)c1ccccc1 [Compound 7, N-phenyl-N-(trichloromethylthio)trichlorovinylsulfonamide] | > 1.7 | > 1.5 | > 1.7 |
| O=S(=O)(Nc1ccc(Cl)c(Cl)c1)C(Cl)=C(Cl)Cl [Compound 21] | > 1.7 | > 1.7 | > 1.7 |
| CC(C)NS(=O)(=O)C(Cl)=C(Cl)Cl [Compound 14] | > 1.7 | > 1.7 | > 1.7 |
| Cc1ccc(NS(=O)(=O)C(Cl)=C(Cl)Cl)cc1 [Compound 18] | > 1.7 | > 1.7 | > 1.7 |
| O=S(=O)(Nc1ccccc1)C(Cl)=C(Cl)Cl [Compound 16] | > 1.7 | > 1.7 | > 1.7 |
| Cc1cccc(C)c1N(SC(Cl)(Cl)Cl)S(=O)(=O)C(Cl)=C(Cl)Cl [Compound 9] | 0.33 | > 1.7 | > 1.7 |
| O=S(=O)(C(Cl)=C(Cl)Cl)N(SC(Cl)(Cl)Cl)C1CCCCC1 [Compound 5] | 1.1 | > 1.7 | > 1.7 |
| CN(SC(Cl)(Cl)Cl)S(=O)(=O)C(Cl)=C(Cl)Cl [Compound 1, N-methyl-N-(trichloromethylthio)trichlorovinylsulfonamide] | 0.18 | 0.42 | 1.7 |
| CC(C)N(SC(Cl)(Cl)Cl)S(=O)(=O)C(Cl)=C(Cl)Cl [Compound 4] | 0.19 | 0.68 | > 1.7 |
| Cc1cc(Sc2ccccc2)ccc1NS(=O)(=O)C(Cl)=C(Cl)Cl [Compound 20] | > 1.7 | > 1.7 | > 1.7 |
